# ± gives the standard deviation.
# Assay: chemical recovery from spiked human plasma; higher = better extraction
# Conditions: pooled human plasma
# [1] = extraction method: PES+SPE (3 d PDMS equilibration then HLB SPE)
# [2] = extraction method: SPE only (HLB 96-well)
# [3] = extraction method: SPE only (HLB 96-well), PES comparison experiment
# [4] = extraction method: solvent precipitation (ACN + hexane)
Compound,chemical recovery [1] [%],chemical recovery [2] [%],chemical recovery [3] [%],chemical recovery [4] [%]
CC(C)c1ccc(N)cc1 [4-Isopropylaniline],6.67 ± 1.6,15.1 ± 2.4,18.2 ± 5.3,23.6 ± 3.4
CC[C@H](C)[C@H]1O[C@]2(CC[C@@H]1C)C[C@@H]1C[C@@H](C/C=C(\C)[C@@H](O[C@H]3C[C@H](OC)[C@@H](O[C@H]4C[C@H](OC)[C@@H](O)[C@H](C)O4)[C@H](C)O3)[C@@H](C)/C=C/C=C3\CO[C@@H]4[C@H](O)C(C)=C[C@@H](C(=O)O1)[C@]34O)O2 [Ivermectin B1a],–,–,16.6 ± 4.9,–
Nc1nc2ccccc2[nH]1 [2-Aminobenzimidazole],–,18.8 ± 4.5,–,68.3 ± 4.5
O=C(NCc1ncc(C(F)(F)F)cc1Cl)c1c(Cl)cccc1Cl [Fluopicolide],65.8 ± 11,58.1 ± 3.7,–,79.1 ± 2.3
CCN1CCCC1CNC(=O)c1cc(S(=O)(=O)CC)c(N)cc1OC (centres undefined) [Amisulpride],–,–,–,70.3 ± 3.4
"Oc1cc(-c2ccc(Cl)cc2)ccc1Cl [3-Hydroxy-4,4'-dichlorobiphenyl]",–,35.7 ± 2.3,–,42.3 ± 3.4
CC(C)(C)c1cc([N+](=O)[O-])cc([N+](=O)[O-])c1O [Dinoterb],48.5 ± 5,–,–,–
"CCCCCCCCCCCCN(C)C [N,N-Dimethyldodecylamine]",–,–,42.1 ± 8.8,78.3 ± 23
Oc1ccc(Cc2ccc(O)cc2)cc1 [Bisphenol-F],70.2 ± 3.4,56 ± 2.6,–,72.6 ± 3.6
"Cc1ccc(C)c(O)c1C [2,3,6-Trimethylphenol]",–,0.62 ± 1.1,–,–
CC(C)NC(=O)N1CC(=O)N(c2cc(Cl)cc(Cl)c2)C1=O [Iprodione],–,28.3 ± 5.6,–,6.49 ± 2.1
O=C1CCCCCCCCCCCN1 [Dodecane-12-lactam],47.4 ± 4.3,53.4 ± 0.92,–,66.7 ± 1.7
CCCCCCCCCCCCCCCC[N+](C)(C)C [Hexadecyltrimethylammonium],–,50.1 ± 19,–,–
"Nc1ccc(Cc2ccc(N)cc2)cc1 [4,4'-Methylenedianiline]",–,9.55 ± 0.81,–,31.9 ± 11
CCN(CC)C(=O)C(C)Oc1cccc2ccccc12 (centres undefined) [Napropamide],–,–,–,70.6 ± 2.5
C[C@]12C=CC3=C4CCC(=O)C=C4CCC3C1CC[C@@H]2O (some centres undefined) [Trenbolone],–,–,47.4 ± 6.8,–
Oc1ccc(C(c2ccccc2)(c2ccccc2)c2ccc(O)cc2)cc1 [Bisphenol-BP],–,40.9 ± 7.5,–,35.1 ± 3.6
CCCSP(=O)(OCC)Oc1ccc(Br)cc1Cl (centres undefined) [Profenofos],–,39.9 ± 5.7,–,–

Compound,chemical recovery [1] [%],chemical recovery [2] [%],chemical recovery [3] [%],chemical recovery [4] [%]
C[N+]1(C)CCCCC1 [Mepiquat],0.578 ± 0.063,0.813 ± 0.44,11.3 ± 9.5,108 ± 18
CCNc1nc(NC(C)C)[nH]c(=O)n1 [2-Hydroxyatrazine],36.1 ± 4.4,29.1 ± 3.5,44.3 ± 8.2,76.5 ± 3.2
COCCOCCOCCO [2-(2-(2-Methoxyethoxy)ethoxy)ethanol],7.13 ± 2.3,6.88 ± 5.6,–,–
O=S(=O)(O)c1cccc2c(O)cccc12 [1-Naphthol-5-sulfonic acid],–,–,35.9 ± 5.8,–
CCn1cc[n+](C)c1 [1-Ethyl-3-methyl-imidazolium],–,0.856 ± 0.42,–,–
CCCCCCCCCCCCCCCC[N+](C)(C)Cc1ccccc1 [Benzyldimethylhexadecylammonium],–,–,–,63.9 ± 7.4
CCC[C@@H]1C[C@@H](C(=O)N[C@@H]([C@H]2O[C@H](SC)[C@H](O)[C@@H](O)[C@H]2O)[C@@H](C)O)N(C)C1 [Lincomycin],–,–,42.1 ± 11,74.7 ± 4.9
NS(=O)(=O)C(F)(F)C(F)(F)C(F)(F)C(F)(F)C(F)(F)C(F)(F)C(F)(F)C(F)(F)F [Perfluorooctanesulfonamide],–,32 ± 4.9,38.8 ± 9.3,–
O=C(O)C(F)(F)C(F)(F)F [Perfluoropropanoic-acid],2.17 ± 0.57,3.57 ± 2.9,–,86.2 ± 7.5
Cc1cc(C(C)(C)c2ccc(O)c(C)c2)ccc1O [Bisphenol-C],52.7 ± 2.9,34.5 ± 4.8,–,39.4 ± 2.5
CCCCCOC(=O)c1ccccc1C(=O)OCCCCC [Di-n-pentylphthalate],–,29.6 ± 6.2,–,–
COCCOCCOCCOCCOC [Tetraglyme],31.9 ± 3.7,28.4 ± 3.6,39.7 ± 9,76.1 ± 3.7
CC(C)NCC(O)COc1ccc(CC(=O)O)cc1 (centres undefined) [Metoprolol-acid],–,52.1 ± 13,–,47.1 ± 8.4
CC1(C)[C@@H](O[C@H]2O[C@H](C(=O)O)[C@@H](O)[C@H](O)[C@H]2O[C@@H]2O[C@H](C(=O)O)[C@@H](O)[C@H](O)[C@H]2O)CC[C@]2(C)[C@H]3C(=O)C=C4[C@@H]5C[C@@](C)(C(=O)O)CC[C@]5(C)CC[C@@]4(C)[C@]3(C)CC[C@@H]12 [Glycyrrhizin],14.5 ± 4.5,16.6 ± 2.5,–,0.719 ± 0.66
COC(=O)c1ccccc1C(=O)OC [Dimethylphthalate],46 ± 3.9,–,–,67.3 ± 4.1
CCCCCCCCCCCC(=O)NCCO [N-Lauroylethanolamine],–,47.5 ± 6,–,74.2 ± 3.9
CNC(=O)c1ccccc1 [N-Methylbenzamide],35 ± 8.6,38.2 ± 3,–,88 ± 3.1
COc1c(C(C)(C)C)cc([N+](=O)[O-])c(C)c1[N+](=O)[O-] [Musk ambrette],–,2.96 ± 0.74,–,–
